# Entries after “also recorded” stand apart in the source; their conditions may differ.
# Tests used:
# wild type human SMO = target: T1, wild type human SMO (Homo sapiens, UniProt Q99835); assay: Gli-luciferase reporter assay, C3H10T1/2 cells transfected with wild type SMO; format: cell-based, mouse
# T1 construct: host or cells: C3H10T1/2 cells (ATCC CCL-226), mouse
# Experimental: Wild type human SMO was subcloned into pcDNA3.1 from an expression construct in pCMV6 (Origene #SC122724). D473H SMO was then generated by site-directed mutagenesis using the Stratagene QuikChange kit (Agilent #200519) and sequence verified.
# Gli-Luciferase reporter assays were performed as described. (Yauch et al. (2009) Science 326: 572-574) Briefly, C3H10 T1/2 cells (ATCC, #CCL-226) were plated in six-well plates at 1×10 to 5th cells per well in BME (Gibco #21010) with 10% FBS (Hyclone #SH30070.03), 2 mM Glutamine (Gibco #25030) and 50 units penicillin/50 ug streptomycin (Gibco #15140). The next morning, cells were transfected with 400 ng SMO expression construct, 400 ng 8× Gli-Luc, and 200 ng pRL-TK per well with GeneJuice transfection reagent (Novagen #70967). Cells in each well were lifted six hours later and replated into four wells of a 12 well plate and allowed to attach overnight. Medium was then changed to low (0.5%) serum and compounds were added in quadruplicate in a range of concentrations. After a 48 hour incubation, firefly and renilla luciferase were assayed using the Promega Dual-Glo Luciferase Assay System (Promega #E2940) and ratios were used to determine percent of control using Prism graphing software.
# [1] = system: primary serous ovarian cancer xenograft; assay: Primary serous ovarian cancer xenograft, post carboplatin/taxol; format: in vivo, NOD/SCID mice
# Experimental: The effects of IPI-926 were examined following carboplatin/taxol combination chemotherapy in a series of primary ovarian cancer xenograft models.
# 1) IPI-926 was given daily, oral at 40 mg/kg
# 2) The taxol/carboplatinum was given: • a. Intraperitoneal Carboplatinum 50 mg/kg every 7 days • b. Intraperitoneal Paclitaxel 15 mg/kg every 7 days
# Days of carboplatin/taxol and IPI-926 administration are indicated by the arrows. […] The inhibitory effects of IPI-926 persisted after discontinuing administration of IPI-926. Thus, IPI-926 can be useful as maintenance therapy in ovarian cancer.
# Excess ovarian tumor tissue from patients was collected. Histologically confirmed papillary serous ovarian tumors was disaggregated into purified tumor cells devoid of hematologic components. These cells were suspended in a 1:1 PBS:Matrigel®. A suspension of a specified number of cells was injected subcutaneously (SC) into 6 week old NOD/SCID mice (NOD/LtSz-Prkdcscid/J; 6-8 weeks; Jackson Labs). The mice were housed and maintained in accordance with the institutional guidelines and tumor formation in the injected animals is monitored regularly. Subcutaneous tumors were measured weekly with calipers, and the volume (in mm^3) was determined using the formula: [length (mm)×width (mm)×width (mm)]/2. Animals were euthanized when they become moribund or had evident excessive tumor burden. For continued propagation in mice, the generated tumors were excised and processed as described for the primary tumor samples, depleted of mouse H2 Kd+ cells (MACS beads) and re-injected subcutaneously into new recipient NOD/SCID mice. All tumor cells utilized for these experiments underwent at least 3 passages to ensure the presence of a tumor initiating population. Histology of each generation was evaluated to confirm the maintenance of papillary serous histology.
# Following serial transplantation, a minimum of 40 tumor-bearing mice (300-600 mm^3) were treated with vehicle or paclitaxel (15 mg/kg) and carboplatinum (50 mg/kg) (T/C) IP q 7 days. […] Tumor volume and mouse weights were regularly assessed. […]
# [2] = system: L3.6pl P-lucky liver metastasis; assay: L3.6pl liver metastasis model, Study #2; format: in vivo
# Experimental: Model Procedure: Animals were anesthetized and prepared for surgery. The animal's spleen was exposed and 100 μl (1 million cells) of the L3.6pl single cell suspension was injected directly in the spleen towards the splenic vein (intra splenic injection). Once the injection was complete, the splenic artery and splenic vein were ligated, the spleen was excised, and the animals' wounds were closed. Post-op care and analgesia was given for 4 consecutive days and animals were monitored for recovery.
# Prior to the procedure listed above 48 animals were separated into […].
# Animals in group 2 (Day-of-Treatment), received IPI-926 every-other-day beginning on the day of the intra splenic injection procedure, continuing until the study end.
# Animals in group 3 (Pre-Treatment Day −2), received IPI-926 every-other-day starting two days prior to the day of the intra splenic injection procedure, continuing until the study end.
# Animals in group 4 (Pre-Treatment Day −7), received IPI-926 every-other-day starting seven days prior to the day of the intra splenic injection procedure, continuing until the study end.
# Animals in group 5 (Pre-Treatment Day −14—treatment stopped on Day 0), received IPI-926 every-other-day starting fourteen days prior to the day of the intra splenic injection procedure and ending on the day of implant.
# Animals in group 6 (Pre-Treatment Day −14), received IPI-926 every-other-day starting fourteen days prior to the day of the intra splenic injection procedure, continuing until the study end.
# Results Procedure: Animals were injected with 10 ml/kg of luciferin concentrated at […] via I.P. injection. This luciferin binds to the L3.6pl P-Lucky cells injected on day 0. Utilizing Calipers Xenogen© machine, this cell-luciferin association emits bioluminescence that can be read and quantified.
# Results: FIGS. 12A-12B represent the results from the quantification, normalized on each day to the average of vehicle treated animals. This normalization was done using the formula: (1/(average flux of vehicle animals/average flux of group X (group being compared))).
# L3.6pl xenografts = settings: with paclitaxel bonded to albumin (Abraxane)
# T1 sequence (Q99835 28-787): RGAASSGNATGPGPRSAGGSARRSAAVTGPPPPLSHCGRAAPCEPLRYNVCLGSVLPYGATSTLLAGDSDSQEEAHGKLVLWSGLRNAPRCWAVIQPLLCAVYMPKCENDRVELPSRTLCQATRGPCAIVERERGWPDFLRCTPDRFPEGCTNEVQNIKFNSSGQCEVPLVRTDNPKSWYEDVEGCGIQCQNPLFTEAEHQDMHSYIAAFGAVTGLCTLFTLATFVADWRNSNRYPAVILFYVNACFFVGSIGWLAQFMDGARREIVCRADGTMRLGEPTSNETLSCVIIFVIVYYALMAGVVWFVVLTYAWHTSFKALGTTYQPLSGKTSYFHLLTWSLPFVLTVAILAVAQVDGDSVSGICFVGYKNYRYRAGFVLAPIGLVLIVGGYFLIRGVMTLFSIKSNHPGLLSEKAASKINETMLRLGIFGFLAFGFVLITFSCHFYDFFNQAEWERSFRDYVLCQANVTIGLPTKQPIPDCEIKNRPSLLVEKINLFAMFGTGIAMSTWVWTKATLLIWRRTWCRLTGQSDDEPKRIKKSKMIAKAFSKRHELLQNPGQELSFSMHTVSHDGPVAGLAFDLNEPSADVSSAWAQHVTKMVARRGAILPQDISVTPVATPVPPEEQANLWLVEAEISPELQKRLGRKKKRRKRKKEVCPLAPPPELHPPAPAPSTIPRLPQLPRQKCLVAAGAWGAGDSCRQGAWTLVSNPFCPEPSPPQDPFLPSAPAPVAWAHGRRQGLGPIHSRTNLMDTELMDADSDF
smiles,measurement,setting,value
CC1=C2C[C@H]3[C@@H](CC[C@@H]4C[C@H](NS(C)(=O)=O)CC[C@@]43C)[C@@H]2CC[C@@]2(C1)O[C@@H]1C[C@H](C)CN[C@H]1[C@H]2C [IPI-926],IC50,wild type human SMO,9 nM
same,"percent tumor volume, IPI-926 alone","[1]; after 20 days of treatment, vs control treated mice",smaller percent tumor volume (p<0.007)
same,tumor volume after cessation of carboplatin/taxol chemotherapy,"[1]; carboplatin/taxol followed by IPI-926 40 mg/kg oral, vs followed by vehicle, 40 mg/kg",prolonged duration of the tumor inhibition; also recorded: smaller percent tumor volume (p<0.02)
same,mGLI-1 mRNA in tumor,[1]; primary xenograft model of ovarian cancer,modulate mGLI-1
same,take or growth of metastasis within the liver,[2]; 2 days of pre treatment,no effect
same,overall survival vs vehicle,[2]; 7 days of pre-treatment,survival benefit
same,overall survival vs vehicle,[2]; 14 days of pre-treatment then stopping,survival benefit
same,reduction in luminescence below vehicle,"[2]; 14 days prior to implant then stopping dosing, early time point",roughly 15 fold
same,decrease in bioluminescence compared to vehicle,"[2]; 14 days prior to implant then stopping dosing, latest time point",5 fold
same,take or growth of metastasis within the liver,[2]; day of implant treatment,no effect
same,overall survival vs vehicle,[2]; pre-treatment beginning at day -2,limited survival benefits
same,reduction in bioluminescence below vehicle,[2]; treatment from 7 days prior to implant,10-15 fold
same,"increase of overall survival rate, factor",[2]; treatment from 14 days prior to implant,≥ 2
same,reduction in flux (bioluminescence) below vehicle,"[2]; treatment from 14 days prior to implant, continued",20-25 fold
same,overall survival vs vehicle,"[2]; treatment starting on the day of implant, day 0",no benefit
same,effect on therapeutic agent effect of Abraxane,L3.6pl xenografts,enhances the therapeutic agent effect
